Where two headings read alike, the source gives them in different places.
What was measured:
Type in all cases: cell-based
[1] = tested on: LAPC4 prostate cancer cells; assay: Antiproliferative effects in LAPC4 cells (CellTiter Glo); settings: LAPC4 cells (AKT1 E17K allele), read-out: LAPC4 proliferation IC50
Outline: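 Seed 1,000 cells/well in IMDM/12% FBS/1% P/S; add compound dilutions (DMSO); incubate 72 h; read intracellular ATP with CellTiter Glo; fit luminescence to log(inhibitor)-response Hill curve for IC50.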

AKT1 E17K = molecular target: T1, AKT1 E17K (Homo sapiens, UniProt P31749, E17K); assay: Live cell AKT1 E17K target engagement by NanoBRET competitive probe displacement; settings: HEK293 cells transfected with kinase-NanoLuciferase fusion, 2 h at 37° C.
T1 construct: expressed in transfected cells; host or cells: HEK293
Outline: (§1)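 IC50 reflects displacement of a fluorescent ATP-competitive tracer, dosed near its EC50, from kinase–NanoLuciferase fusions in live HEK293 cells. Cells were incubated with compound and tracer for 2 h at 37 °C, then E600/E460 BRET was read.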

AKT2 = molecular target: T2, AKT2 (Homo sapiens, UniProt P31751); assay: Live cell AKT2 target engagement by NanoBRET competitive probe displacement; settings: HEK293 cells transfected with kinase-NanoLuciferase fusion, 2 h at 37° C.
T2 construct: expressed in transfected cells; host or cells: HEK293
Outline: as §1

AKT1 WT = molecular target: T3, AKT1 WT (Homo sapiens, UniProt P31749); assay: Live cell AKT1 WT target engagement by NanoBRET competitive probe displacement; settings: HEK293 cells transfected with kinase-NanoLuciferase fusion, 2 h at 37° C.
T3 construct: expressed in transfected cells; host or cells: HEK293
Outline: as §1

T3 sequence (P31749 whole entry, the tested form may be a part): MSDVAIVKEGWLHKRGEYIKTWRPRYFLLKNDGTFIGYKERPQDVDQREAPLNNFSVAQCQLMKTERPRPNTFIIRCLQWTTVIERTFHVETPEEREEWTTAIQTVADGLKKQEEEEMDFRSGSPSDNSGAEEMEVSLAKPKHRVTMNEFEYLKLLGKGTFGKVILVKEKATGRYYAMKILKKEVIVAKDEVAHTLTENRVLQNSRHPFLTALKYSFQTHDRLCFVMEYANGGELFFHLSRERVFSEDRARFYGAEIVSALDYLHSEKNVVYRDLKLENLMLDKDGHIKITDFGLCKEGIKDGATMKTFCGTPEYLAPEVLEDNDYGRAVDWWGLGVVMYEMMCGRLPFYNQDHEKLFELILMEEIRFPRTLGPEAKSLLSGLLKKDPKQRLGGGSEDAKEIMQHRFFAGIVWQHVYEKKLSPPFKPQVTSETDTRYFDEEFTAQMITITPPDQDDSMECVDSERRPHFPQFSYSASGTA
T1 sequence (P31749 whole entry E17K, the tested form may be a part): as the sequence (P31749 whole entry, the tested form may be a part) above, with E17K counted along it
T2 sequence (P31751 whole entry, the tested form may be a part): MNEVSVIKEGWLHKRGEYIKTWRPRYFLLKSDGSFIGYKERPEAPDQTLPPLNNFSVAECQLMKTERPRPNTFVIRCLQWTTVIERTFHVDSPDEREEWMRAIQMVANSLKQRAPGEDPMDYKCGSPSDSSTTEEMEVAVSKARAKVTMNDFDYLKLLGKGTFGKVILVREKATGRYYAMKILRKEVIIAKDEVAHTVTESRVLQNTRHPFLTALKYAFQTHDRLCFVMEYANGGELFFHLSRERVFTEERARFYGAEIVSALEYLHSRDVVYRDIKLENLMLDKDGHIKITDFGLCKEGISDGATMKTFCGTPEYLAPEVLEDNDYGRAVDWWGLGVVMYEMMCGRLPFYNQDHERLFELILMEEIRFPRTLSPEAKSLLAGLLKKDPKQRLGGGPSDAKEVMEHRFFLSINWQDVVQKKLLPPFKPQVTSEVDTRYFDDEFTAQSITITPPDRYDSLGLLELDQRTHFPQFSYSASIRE

**Q.** For C=CC(=O)N1CCC(N[C@H]2CCc3cc(-n4c(-c5cccnc5N)nc5ccc(-n6cccn6)nc54)ccc32)C[C@@H]1C (single isomer, unassigned) [Example 65, 1-((2S,4*)-4-(((S)-5-(2-(2-aminopyridin-3-yl)-5-(1H-pyrazol-1-yl)-3H-imidazo[4,5-b]pyridin-3-yl)-2,3-dihydro-1H-inden-1-yl)amino)-2-methylpiperidin-1-yl)prop-2-en-1-one], which IC50 ([1]; 72 h) is on record?
**A.** Its IC50 is 203 nM.

**Q.** And the IC50 (AKT1 E17K)?
**A.** Its IC50 is 58.3 nM.

**Q.** And the IC50 (AKT2)?
**A.** The IC50 was 397 nM.

**Q.** What about the IC50 (AKT1 WT) of the same molecule?
**A.** The IC50 was 29.6 nM.

**Q.** C=CC(=O)N1CCC(N[C@H]2CCc3cc(-n4c(-c5cccnc5N)nc5ccc(-n6cccn6)nc54)ccc32)C[C@@H]1C (single isomer, unassigned) [Example 66, 1-((2S,4*)-4-(((S)-5-(2-(2-aminopyridin-3-yl)-5-(1H-pyrazol-1-yl)-3H-imidazo[4,5-b]pyridin-3-yl)-2,3-dihydro-1H-inden-1-yl)amino)-2-methylpiperidin-1-yl)prop-2-en-1-one] was tested. Which IC50 ([1]; 72 h) did it give?
**A.** The IC50 was 68 nM.

**Q.** What about the IC50 (AKT1 E17K) of the same molecule?
**A.** The IC50 was 29.6 nM.

**Q.** What about the IC50 (AKT2) of the same molecule?
**A.** Its IC50 is 51.5 nM.

**Q.** And the IC50 (AKT1 WT)?
**A.** The IC50 was 12.1 nM.

**Q.** Which IC50 ([1]; 72 h) does the source give for C=CC(=O)N1C[C@H]2COC[C@@H](C1)C2N[C@H]1CCc2cc(-n3c(-c4cccnc4N)nc4ccc(-n5cccn5)nc43)ccc21 (single isomer, unassigned) [Example 72, 1-((1R,5S,9*)-9-(((S)-5-(2-(2-aminopyridin-3-yl)-5-(1H-pyrazol-1-yl)-3H-imidazo[4,5-b]pyridin-3-yl)-2,3-dihydro-1H-inden-1-yl)amino)-3-oxa-7-azabicyclo[3.3.1]nonan-7-yl)prop-2-en-1-one] here?
**A.** The IC50 was 493 nM.

**Q.** What about the IC50 (AKT1 E17K) of the same molecule?
**A.** Its IC50 is 75.2 nM.

**Q.** And the IC50 (AKT2)?
**A.** The IC50 was 289 nM.

**Q.** And the IC50 (AKT1 WT)?
**A.** Its IC50 is 15.8 nM.

**Q.** C=CC(=O)N1C[C@H]2COC[C@@H](C1)C2N[C@H]1CCc2cc(-n3c(-c4cccnc4N)nc4ccc(-n5cccn5)nc43)ccc21 (single isomer, unassigned) [Example 73, 1-((1R,5S,9*)-9-(((S)-5-(2-(2-aminopyridin-3-yl)-5-(1H-pyrazol-1-yl)-3H-imidazo[4,5-b]pyridin-3-yl)-2,3-dihydro-1H-inden-1-yl)amino)-3-oxa-7-azabicyclo[3.3.1]nonan-7-yl)prop-2-en-1-one] was tested. Which IC50 ([1]; 72 h) did it give?
**A.** Its IC50 is 74.4 nM.

**Q.** What about the IC50 (AKT1 E17K) of the same molecule?
**A.** Its IC50 is 19 nM.

**Q.** And the IC50 (AKT2)?
**A.** The IC50 was 86.3 nM.

**Q.** What about the IC50 (AKT1 WT) of the same molecule?
**A.** The IC50 was 16 nM.

**Q.** What does the source list for C=CC(=O)N1CC2(CCCC(N[C@H]3CCc4cc(-n5c(-c6cccnc6N)nc6ccc(-n7cccn7)nc65)ccc43)C2)C1 (single isomer, unassigned) [Example 78, 1-((*)-6-(((S)-5-(2-(2-aminopyridin-3-yl)-5-(1H-pyrazol-1-yl)-3H-imidazo[4,5-b]pyridin-3-yl)-2,3-dihydro-1H-inden-1-yl)amino)-2-azaspiro[3.5]nonan-2-yl)prop-2-en-1-one]?
**A.** IC50 ([1]; Homo sapiens, LAPC4, 72 h): 212 nM; IC50 (AKT1 E17K): 63 nM; IC50 (AKT2): 136 nM; IC50 (AKT1 WT): 22 nM

**Q.** For C=CC(=O)N1CC2(CCCC(N[C@H]3CCc4cc(-n5c(-c6cccnc6N)nc6ccc(-n7cccn7)nc65)ccc43)C2)C1 (single isomer, unassigned) [Example 79, 1-((*)-6-(((S)-5-(2-(2-aminopyridin-3-yl)-5-(1H-pyrazol-1-yl)-3H-imidazo[4,5-b]pyridin-3-yl)-2,3-dihydro-1H-inden-1-yl)amino)-2-azaspiro[3.5]nonan-2-yl)prop-2-en-1-one], which IC50 ([1]; Homo sapiens, LAPC4, 72 h) is on record?
**A.** The IC50 was 16.8 nM.

**Q.** And the IC50 (AKT1 E17K)?
**A.** Its IC50 is 14.2 nM.

**Q.** And the IC50 (AKT2)?
**A.** The IC50 was 27.1 nM.

**Q.** And the IC50 (AKT1 WT)?
**A.** Its IC50 is 11.9 nM.

**Q.** Which IC50 ([1]; 72 h) does the source give for C=CC(=O)N1CCCC(N[C@H]2CCc3cc(-n4c(-c5cccnc5N)nc5ccc(-n6cccn6)nc54)ccc32)CC1 (single isomer, unassigned) [Example 81, 1-((*)-4-(((S)-5-(2-(2-aminopyridin-3-yl)-5-(1H-pyrazol-1-yl)-3H-imidazo[4,5-b]pyridin-3-yl)-2,3-dihydro-1H-inden-1-yl)amino)azepan-1-yl)prop-2-en-1-one] here?
**A.** Its IC50 is 7600 nM.

**Q.** And the IC50 (AKT1 E17K)?
**A.** The IC50 was greater than 1000 nM.

**Q.** What about the IC50 (AKT2) of the same molecule?
**A.** Its IC50 is 1200 nM.

**Q.** And the IC50 (AKT1 WT)?
**A.** Its IC50 is 93.2 nM.

From patent US12570655B2, “Cysteine covalent modifiers of AKT1 and uses thereof” (Terremoto Biosciences, Inc., priority 2023, dated 2026)
